The record followed here is patent US6770654B2, “Indole derivatives and use thereof in medicines” (Toray Industries, Inc., priority 2000, dated 2004).

Molecules are shown by their SMILES. Structures can show the parent of a compound that is named as a salt.

One data set addresses T1, δ opioid receptor (Mus musculus, UniProt P32300).
T1 construct: Each of the vas deferens isolated from the mice was hung in a Magnus tube; from tissue; host or cells: vas deferens of male ddy strain mice
The data set is described as follows: Mouse vas deferens (MVD): antagonism against the δ agonist DPDPE, pA2 by Schild method. It counts as cell-based. On the procedure:
Using mouse vas deferens (MVD), the compounds were examined for antagonism against opioid receptor agonists, i.e., morphine (μ), DPDPE (δ), and U50,488H (κ).
Male ddy strain mice were used in this experiment. Each of the vas deferens isolated from the mice was hung in a Magnus tube which was maintained at 37° C., filled with a Krebes-Henseleit solution (NaCl 118 mM; KCl 4.7 mM; CaCl2 2.5 mM; KH2PO4 1.1 mM; NaHCO3 25 mM; glucose 11 mM), and aerated with 5% carbon dioxide and 95% oxygen. Electric stimulation was applied through upper and lower ring-shaped platinum electrodes at 0.1 Hz and 5.0 mS. Tissue contraction was recorded on a polygraph using an Isometric Transducer.
Morphine, DPDPE, and U50,488H were added in a cumulative manner to determine the IC50 values (concentration for 50% inhibition of contraction induced by electric stimulation). Next, 10 nM of a sample compound was added to the system beforehand, and 20 minutes later, morphine, DPDPE, and U50,488H were added in a cumulative manner. According to the above procedure, the ratio of the IC50 values of morphine, DPDPE, and U50,488H in the presence of the sample compound to that in its absence was determined, and the pA2 values were calculated in accordance with the Schild et al.'s method (Schild, H. O., Br. J. Pharamacol. Chemother. 4, 277 (1949)).

T1 sequence (P32300 whole entry): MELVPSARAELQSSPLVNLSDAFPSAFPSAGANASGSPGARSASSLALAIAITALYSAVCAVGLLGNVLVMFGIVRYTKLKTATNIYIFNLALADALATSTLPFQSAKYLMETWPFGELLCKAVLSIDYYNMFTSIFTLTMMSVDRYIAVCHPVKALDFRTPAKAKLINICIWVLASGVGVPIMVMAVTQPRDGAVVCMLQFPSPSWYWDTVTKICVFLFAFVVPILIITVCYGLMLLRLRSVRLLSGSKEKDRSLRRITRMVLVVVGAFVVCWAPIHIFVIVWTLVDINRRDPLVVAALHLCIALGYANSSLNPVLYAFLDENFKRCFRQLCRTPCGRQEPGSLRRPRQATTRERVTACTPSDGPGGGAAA

The Kb is the affinity of an antagonist, worked out from how it opposes an agonist. Lower therefore signals higher antagonist affinity. `Oc1ccc2c3c1O[C@H]1c4c(c5cc(F)cc6c5n4CC[C@@H]6O)C[C@@]4(O)[C@@H](C2)N(CC2CC2)CC[C@]314` [Compound 3, 17-cyclopropylmethyl-6,7-didehydro-4,5α-epoxy-8′-fluoro-5′,6′-dihydro-4′H-pyrrolo[3,2,1-ij]quinolino[2′,1′:6,7]-morphinan-3,6′β,14β-triol] showed a Kb on δ opioid receptor of 3.98 nM.

The term melting point denotes the temperature of the solid-liquid transition. Take `Oc1ccc2c3c1O[C@H]1c4c(c5cc(F)cc6c5n4CC[C@@H]6O)C[C@@]4(O)[C@@H](C2)N(CC2CC2)CC[C@]314` (as salt: methanesulfonate) [Compound 3, 17-cyclopropylmethyl-6,7-didehydro-4,5α-epoxy-8′-fluoro-5′,6′-dihydro-4′H-pyrrolo[3,2,1-ij]quinolino[2′,1′:6,7]-morphinan-3,6′β,14β-triol]: the melting point is 240 °C (dec.).

For `Oc1ccc2c3c1O[C@H]1c4c(c5c(O)c(F)cc6c5n4CCC6)C[C@@]4(O)[C@@H](C2)N(CC2CC2)CC[C@]314` (as salt: methanesulfonate), the melting point was 280 °C (dec.).
